Laboratory results as given in USRE30886E, “Method and composition for reducing blood glucose levels” (Nippon Shinyaku Company Ltd., priority 1975, dated 1982).

How the values were obtained:
[1] = tested on: Sucrose-Administered Rats; assay: Inhibitory action against increase of blood glucose for sucrose-administered rats; type: in vivo, Male Sprague Dawley rats; settings: with 2 g/kg sucrose
Method: Male Sprague Dawley rats with body weight of 150 to 200 grams were fasted overnight, and 2 g/kg of sucrose was administered orally by using a stomach tube. The compound of this invention was simultaneously administered in a similar way at the rate of 1 to 100 mg/kg, and blood was drawn from the tail vein of each rat at suitable time intervals and blood glucose levels were measured by a method using glucose oxidase.

lipid biosynthesis = assay: Ability to inhibit lipid biosynthesis
[2] = tested on: Glucose-administered Rats; assay: Inhibitory action against increase of glucose in blood of glucose-administered rats; type: in vivo, Male Sprague Dawley rats; settings: with 2 g/kg glucose; for Blood Glucose Concentration: 5 rats
Method: Male Sprague Dawley rats with body weights ranging from 150 to 200 grams were fasted overnight, and then 2 g/kg of glucose was administered orally by using a stomach tube. The compound of this invention was also administered simultaneously in an amount of 10 to 100 mg/kg, and blood was drawn from the tail vein of each rat at suitable time intervals, and blood glucose levels were measured according to a method using glucose oxidase (Blood Sugar Test, TC-M-III, Boehringer Mannheim A.G.).

rats = assay: Antidiabetic action model: glucose level in blood of rats given glucose orally; type: in vivo, Male Sprague Dawley rats; settings: 1 to 1000 mg/kg, with glucose 0.5 to 4 g/kg orally
Method: Male Sprague Dawley rats of body weight of 150 to 200 grams are fasted overnight and glucose is then administered orally at the rate of 0.5 to 4 g/kg by using a stomach tube. Blood is drawn from the tail vein of each rat at suitable time intervals to determine glucose level in the blood. The glucose content in the blood increases rapidly to cause hyperglycemia.

Starch-Administered Rats = assay: Inhibitory action against increase of blood glucose for starch-administered rats; type: in vivo, Male Sprague Dawley rats; settings: with 1 g/kg starch; for Blood Glucose Concentration: 5 rats
Method: Male Sprague Dawley rats with body weight of 150 to 200 grams were fasted overnight, and 1 g/kg of starch was administered orally by using a stomach tube. The compound of this invention was simultaneously administered at the dose of 10 to 100 mg/kg, and blood was drawn from the tail vein of each rat and blood glucose levels were examined by a method using glucose oxidase.

[3] = Acute toxicity (LD50) in mice; type: in vivo; settings: mouse, in vivo
mice = assay: Acute toxicity (LD50) in mice; type: in vivo
healthy = assay: Glucose level in the blood of healthy man after oral carbohydrate; type: in vivo, human; settings: 1 to 1000 mg/kg orally, with 50 to 100 grams of glucose
humans and other animals = assay: Ability to inhibit or reduce the increase of glucose levels in humans and other animals; type: in vivo; settings: upon administration of glucose or a glucose producing carbohydrate
[4] = 10 mg/kg oral, 0 min after administration
[5] = 10 mg/kg oral, 15 min after administration
[6] = 10 mg/kg oral, 30 min after administration
[7] = 10 mg/kg oral, 60 min after administration
[8] = 100 mg/kg oral, 0 min after administration
[9] = 100 mg/kg oral, 15 min after administration
[10] = 100 mg/kg oral, 30 min after administration
[11] = 100 mg/kg oral, 60 min after administration

## OC[C@H]1NC[C@H](O)[C@@H](O)[C@@H]1O [compound of this invention, 2(R),3(R),4(R),5(S)-2-hydroxymethyl-3,4,5-trihydroxypiperidine]
[1]; 1 mg/kg oral, 0 min after administration, 5 rats
  Blood Glucose Concentration: 69 mg %
[1]; 1 mg/kg oral, 15 min after administration, 5 rats
  Blood Glucose Concentration: 98 mg %
[1]; 1 mg/kg oral, 30 min after administration, 5 rats
  Blood Glucose Concentration: 121 mg %
[1]; 1 mg/kg oral, 60 min after administration, 5 rats
  Blood Glucose Concentration: 127 mg %
[1]; 10 mg/kg oral, 0 min after administration, 6 rats
  Blood Glucose Concentration: 47 mg %
[1]; 10 mg/kg oral, 15 min after administration, 6 rats
  Blood Glucose Concentration: 57 mg %
[1]; 10 mg/kg oral, 30 min after administration, 6 rats
  Blood Glucose Concentration: 52 mg %
[1]; 10 mg/kg oral, 60 min after administration, 6 rats
  Blood Glucose Concentration: 97 mg %
[1]; 10 mg/kg
  Increase of glucose in the blood: totally inhibited
[1]; 100 mg/kg oral, 0 min after administration, 5 rats
  Blood Glucose Concentration: 52 mg %
[1]; 100 mg/kg oral, 15 min after administration, 5 rats
  Blood Glucose Concentration: 66 mg %
[1]; 100 mg/kg oral, 30 min after administration, 5 rats
  Blood Glucose Concentration: 63 mg %
[1]; 100 mg/kg oral, 60 min after administration, 5 rats
  Blood Glucose Concentration: 64 mg %
Lipid biosynthesis
  inhibition of lipid biosynthesis: inhibit lipid biosynthesis
[2]; [4]
  Blood Glucose Concentration: 59 mg %
[2]; [5]
  Blood Glucose Concentration: 100 mg %
[2]; [6]
  Blood Glucose Concentration: 108 mg %
[2]; [7]
  Blood Glucose Concentration: 107 mg %
[2]; [8]
  Blood Glucose Concentration: 52 mg %
[2]; [9]
  Blood Glucose Concentration: 59 mg %
[2]; [10]
  Blood Glucose Concentration: 58 mg %
[2]; [11]
  Blood Glucose Concentration: 63 mg %
[2]; 100 mg/kg
  Increase of glucose in the blood: totally inhibited
rats
  rise of the glucose content in the blood: rise of the glucose content in the blood is inhibited
Starch-Administered Rats; [4]
  Blood Glucose Concentration: 53 mg %
Starch-Administered Rats; [5]
  Blood Glucose Concentration: 67 mg %
Starch-Administered Rats; [6]
  Blood Glucose Concentration: 80 mg %
Starch-Administered Rats; [7]
  Blood Glucose Concentration: 83 mg %
Starch-Administered Rats; [8]
  Blood Glucose Concentration: 52 mg %
Starch-Administered Rats; [9]
  Blood Glucose Concentration: 57 mg %
Starch-Administered Rats; [10]
  Blood Glucose Concentration: 63 mg %
Starch-Administered Rats; [11]
  Blood Glucose Concentration: 59 mg %
Starch-Administered Rats; 100 mg/kg
  Increase of glucose in the blood: totally inhibit increase of glucose in the blood
[3]; intravenous administration
  LD50: > 800 mg/kg
[3]; oral administration
  LD50: > 1200 mg/kg
mice
  toxicity: very low
healthy
  rise of the glucose content in the blood: rise of the glucose content in the blood is inhibited corresponding to the dosage
Humans and other animals
  increase of glucose levels: inhibit or reduce the increase of glucose levels
